Measurements reported in US10314785B2, “Sterile pharmaceutical compositions” (NORTON HEALTHCARE LTD, priority 2004, dated 2019).
Values after ≈ are worked out from the molar mass of the structure shown.

Experiments:
[1] = suspensions sterilized by a wet steam process; cited from earlier work
[2] = Heat sterilization of beclomethasone dipropionate concentrates: content, impurities, particle size; type: physicochemical; conditions: 121/30, data not shown
Experimental: Determination of impurity levels and particle size were also determined as outlined above.

[3] = Water solubility of budesonide at sterilizing temperatures; type: physicochemical
Experimental: A balance is required between the solubility of the glucocorticosteroid and the amount of the glucocorticosteroid used per unit of solvent such that at least 50% of the glucocorticosteroid is suspended in the solvent. For example, for budesonide, at the sterilizing temperatures used herein the water solubility is about 7 mg/ml. Therefore, using 15 mg of budesonide per […] provides 53% of budesonide as a suspension. Preferably at least 60% of the glucocorticosteroid is suspended in the solvent although this value could be at least 70% or at least 80%.

CCC(=O)OCC(=O)[C@@]1(OC(=O)CC)[C@@H](C)C[C@H]2[C@@H]3CCC4=CC(=O)C=C[C@]4(C)[C@@]3(Cl)[C@@H](O)C[C@@]21C [beclomethasone, beclomethasone dipropionate]
decrease in active ingredient content [1]: 8-9% | increase in degradation products [1]: 10-11% | change in beclomethasone content upon heating in the autoclave [2]: no significant change | change in particle size distribution on autoclaving [2]: no significant change | increase in impurities upon heating in the autoclave [2]: no significant change in beclomethasone content or increase in impurities

CCCC1O[C@@H]2C[C@H]3[C@@H]4CCC5=CC(=O)C=C[C@]5(C)[C@H]4[C@@H](O)C[C@]3(C)[C@]2(C(=O)CO)O1 (stereo partly shown) [budesonide]
fraction of budesonide suspended ([3]; using 15 mg of budesonide per 1 mg water): 53% | solubility ([3]; water, at the sterilizing temperatures used herein): ~7000 µg/mL (≈ 16.3 mM)
